Test results reported in patent US20220133894A1, “BISPHOSPHONATE-LINKED COMPOUNDS” (OREGON HEALTH & SCIENCE UNIVERSITY, priority 2019, published 2022).

Columns and labels:
[1] = system: AR; test: Subcellular localization of androgen receptor, Western blot of nuclear and cytoplasmic fractions; format: cell-based, human; settings: LNCaP and VCaP cells, 10 μM KBU2046
From the text: Several considerations warranted a deeper examination of the effect of KBU2046 on AR function. […] Additionally, AR is a client protein of HSP90, AR function requires HSP90-mediated chaperone action, and direct inhibitors of HSP90 decrease client protein expression and inhibit AR function (24-26 Fang et al., J Biol Chem 271, 28697-28702 (1996); Saporita et al., Prostate 67, 509-520 (2007); and Ni et al., Mol Cell Biol 30, 1243-1253 (2010)). […] It is a selective HSP90 activity modulator (SHAM), and selectively modulates client proteins that regulate cell motility. However, the effect of KBU2046 on AR expression and function had not been examined. […]
LNCaP or VCaP cells cultured in hormone free media were treated with R1881 (R), KBU2046 (46) and/or enzalutamide (E). […] PSA expression was measured by qRT/PCR, normalized to GAPDH and expressed as a percent of control cells (N=3 replicates); * denotes P<0.05 for groups separated by bar. […] Data are the number of viable cells, expressed as % of control (N=3 replicates); * P<0.05 compared to control. […] Data are tumor size, expressed as luminescence intensity. All data are expressed as mean±SEM.
LNCaP and VCaP cells were pre-incubated in the charcoal-striped medium containing 10 μM KBU2046 or vehicle control for 72 hours. […] Protein was quantified by BCA assay (Thermo-Fisher Scientific, Waltham, Mass.), per manufacturer's instructions. […]

[2] = system: Raf1; test: Western blot of Raf1 phosphorylation in RANKL treated osteoclast cells; format: cell-based, mouse; settings: 10 μM KBU2046, RANKL treated RAW 267.4 cells, time-dependent
From the text: To examine this paradigm we first evaluated whether KBU2046 would inhibit Raf1 phosphorylation in osteoclasts. After treatment with RANKL, RAW 267.4 cells differentiate into mature osteoclasts. Upon maturation osteoclast become multinucleated, express tartrate resistant acid phosphatase (TRAP), and have the capacity to form actin rings that create an occluded cavity in which bone is degraded. KBU2046 inhibits phosphorylation of Raf1's activation motif in RANKL treated RAW 267.4 osteoclast cells, and does so in a time-dependent manner (FIG. 4A). In osteoclasts Raf1 is known to phosphorylate MEK1/2, in turn phosphorylating ERK1/2 (Bradley et al., J Cell Biochem 104, 1439-1451 (2008)), with the latter acting to stimulate osteoclast differentiation and bone resorptive activity (He et al., PLoS One 6, e24780 (2011); and Nakamura et al., J Bone Miner Res 18, 1198-1205 (2003)).
FIG. 4 represents the KBU2046 inhibition of osteoclast function. FIG. 4A compares effects on Raf1 activation. […] RAW 267.4 cells were plated onto Osteo Assay plates, treated with RANKL for 6 days and with KBU2046 (or vehicle for controls) as indicated and bone surface area quantified. Data are the mean±SEM (N=3 replicates) of bone surface area, expressed as the percentage of control cells; * denotes P<0.05 compared to control. […]

[3] = system: prostate specific antigen (PSA); test: PSA expression by qRT/PCR in VCaP cells; format: cell-based, human
Method: Cells were cultured in media depleted of androgen and after a washout of 72 hrs were treated with the synthetic androgen R1881, KBU2046, enzalutamide and/or vehicle (control), and resultant effects upon induction of the androgen-responsive gene, prostate specific antigen (PSA) were measured (FIG. 3A).
LNCaP or VCaP cells cultured in hormone free media were treated with R1881 (R), KBU2046 (46) and/or enzalutamide (E). (FIGS. 3A and 3B) Effects on AR-responsive gene expression. PSA expression was measured by qRT/PCR, normalized to GAPDH and expressed as a percent of control cells (N=3 replicates); * denotes P<0.05 for groups separated by bar. (FIGS. 3C and 3D) Effects on cell growth. Three day growth assays were performed. Data are the number of viable cells, expressed as % of control (N=3 replicates); * P<0.05 compared to control. (E) Effects on AR activation. Western blots of nuclear (N) and cytoplasmic (C) preparations of cell extracts were probed for AR, laminin 1 or α-tubulin. (FIGS. 3F and 3G) Effects on tumor outgrowth after androgen deprivation therapy. LNCaP/AR-luc cells were implanted subcutaneously (N=6 mice/cohort) or orthotopic (N=15 mice/cohort were implanted; N=5 yielded tumors) into castrate mice, treatment with KBU2046 began as noted, and weekly IVIS imaging performed. Data are tumor size, expressed as luminescence intensity. All data are expressed as mean±SEM.
RNA was isolated and qRT/PCR performed as previously described by us (Ding et al., J Biomol Tech 18, 321-330 (2007)). Resultant data were analyzed using the 2^−ΔΔt method (Livak et al., Methods 25, 402-408 (2001)), normalized to GAPDH, for the following primer/probe sets (ABI) PSA (Hs02576345_m1) and GAPDH (Hs99999905_m1). Assays were performed in triplicate, and were repeated.

O=C1c2ccccc2OCC1c1ccc(F)cc1 (stereo not shown) [KBU2046, 3-(4-fluorophenyl)chroman-4-one]
AR expression or nuclear localization in response to R1881, and its inhibition by enzalutamide [1]: did not affect
phosphorylation of Raf1's activation motif [2]: inhibits
decrease of PSA expression in R1881 treated cells ([3]; VCaP cells, R1881 treated): 36%
relative increase of PSA expression in control cells ([3]; VCaP control cells, very low baseline): 14%
